Reference: US12133907B2, “Lipophilic third generation retinoid” (Actera Ingredients, Inc., priority 2021, dated 2024)
Where two headings read alike, the source gives them in different places.

How the values were obtained:
[1] = Dissolution of lauryl adapalene in MCT oil (caprylic/capric triglyceride) and persistence of the solution; type: physicochemical
Procedure: Approximately 5 grams of lauryl adapalene solids were dissolved in 95 grams of liquid MCT oil (caprylic/capric triglyceride), by heating the mixture to 60° C. for fifteen minutes.

[2] = cited from earlier work
[3] = Adapalene oleyl ester dissolved in squalane (premix properties); type: physicochemical; conditions: for physical form of the premix in squalane: 20% by weight in squalane
Description: The adapalene ester can be formulated in a premix composition with a non-polar lipophilic carrier at even higher concentrations of the adapalene ester. Typically, the concentration of the adapalene ester in the premix composition will be at least about 10% by weight, and the weight ratio of adapalene ester to lipophilic carrier is from about 1:9 to about 3:7. The premix composition may in the form of a homogeneous liquid solution or single phase amorphous solid.
Adapalene oleyl ester was dissolved in squalane at a concentration of 20% by weight. […] Rather, the entire premix mass formed a soft amorphous solid paste. The concentrated 20% adapalene oleyl ester in squalane remains a single homogenous soft solid paste with a melting temperature range of 30-35° C. This is a suitable temperature range for use in the manufacturing of finished cosmetics, which are usually manufactured at 30-80° C. This 20% composition can itself melt when in contact with the skin (33° C.). A combination of adapalene oleyl ester with squalane at high concentration, minimum 20%, provides an advantageous skin beauty treatment that can target acne prone skin with 20% or more adapalene ester, which is not possible with highly insoluble pure adapalene.

CCCCCCCCCCCCOC(=O)c1ccc2cc(-c3ccc(OC)c(C45CC6CC(CC(C6)C4)C5)c3)ccc2c1 [lauryl adapalene]
time the solution remained in liquid form ([1]; 5% wt/wt solution in MCT oil, room temperature): more than one week
concentration of active agent dissolved in liquid MCT oil ([1]; 5 g solids in 95 g MCT oil, heated to 60° C. for fifteen minutes): 5 % wt/wt

COc1ccc(-c2ccc3cc(C(=O)O)ccc3c2)cc1C12CC3CC(CC(C3)C1)C2 [Adapalene, 6-(3-(1-adamantyl)-4-methoxyphenyl)-2-naphthoic acid]
solubility in ethanol [2]: sparingly soluble
solubility in oil or water [2]: not oil or water soluble
solubility in oil or water ([2]; listed as adapalene): insoluble in oil or water

CCCCCCCC/C=C\CCCCCCCCOC(=O)c1ccc2cc(-c3ccc(OC)c(C45CC6CC(CC(C6)C4)C5)c3)ccc2c1 [Adapalene oleyl ester, adapalene oleyl ester]
physical form of the premix in squalane [3]: formed a homogenous amorphous solid
physical form of the premix in squalane ([3]; listed as adapalene C18-1 ester): forms a homogenous amorphous solid
concentration dissolved in squalane ([3]; squalane premix): 20 % by weight
